Source: ChEMBL document CHEMBL1201862, “PubChem BioAssay data set” (2004)
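96-well plates; 48 h exposure; 5 concentrations. Endpoints by linear interpolation between flanking doses. Not reached: highest tested concentration assigned. The concentration for 50% growth inhibition is given as GI50.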 Active and inactive are the calls of the source. No stated cut-off is given here; in the data, active = GI50 up to about 1.1 µM and inactive = higher.

Key:
Test in all cases: NCI-60 cell line screen, 48 h
CCRF-CEM = system: CCRF-CEM
COLO 205 = system: COLO 205
HCT-116 = system: HCT-116
K562 = system: K562
KM12 = system: KM12
M14 = system: M14
MOLT-4 = system: MOLT-4
OVCAR-3 = system: OVCAR-3
OVCAR-8 = system: OVCAR-8
RXF 393 = system: RXF 393
SF-268 = system: SF-268
SK-MEL-2 = system: SK-MEL-2
SN12C = system: SN12C
U-251 = system: U-251
A549 = system: A549
OVCAR-4 = system: OVCAR-4
OVCAR-5 = system: OVCAR-5
SF-539 = system: SF-539
SK-MEL-5 = system: SK-MEL-5
UACC-62 = system: UACC-62

Measured: GI50

CN1C2CCC1CC(C)(O)C2 (stereo not drawn)
inactive: CCRF-CEM > 100 µM | COLO 205 > 100 µM | HCT-116 > 100 µM | K562 > 100 µM | KM12 > 100 µM | M14 > 100 µM | MOLT-4 > 100 µM | OVCAR-3 > 100 µM | OVCAR-8 > 100 µM | RXF 393 > 100 µM | SF-268 > 100 µM | SK-MEL-2 > 100 µM | SN12C > 100 µM | U-251 > 100 µM

COC(=O)c1ccc(/C=C2\N=C(C)OC2=O)cc1
inactive: A549 > 100 µM | CCRF-CEM > 100 µM | COLO 205 > 100 µM | HCT-116 > 100 µM | K562 > 100 µM | KM12 > 100 µM | M14 > 100 µM | MOLT-4 > 100 µM | OVCAR-3 > 100 µM | OVCAR-4 > 100 µM | OVCAR-5 > 100 µM | OVCAR-8 > 100 µM | SF-268 > 100 µM | SF-539 > 100 µM | SK-MEL-5 > 100 µM | SN12C > 100 µM | U-251 > 100 µM | UACC-62 > 100 µM

O=CCCn1[nH]c(=O)ccc1=O
inactive: A549 > 100 µM | CCRF-CEM > 100 µM | HCT-116 > 100 µM | K562 > 100 µM | M14 > 100 µM | MOLT-4 > 100 µM | OVCAR-3 > 100 µM | OVCAR-4 > 100 µM | OVCAR-5 > 100 µM | OVCAR-8 > 100 µM | RXF 393 > 100 µM | SF-268 > 100 µM | SF-539 > 100 µM | SK-MEL-2 > 100 µM | SK-MEL-5 > 100 µM | SN12C > 100 µM | U-251 > 100 µM | UACC-62 > 100 µM

CNc1ccccc1-c1nc2ccccc2c(=O)o1
inactive: A549 > 100 µM | CCRF-CEM > 100 µM | COLO 205 > 100 µM | HCT-116 > 100 µM | K562 > 100 µM | KM12 > 100 µM | M14 > 100 µM | MOLT-4 > 100 µM | OVCAR-4 > 100 µM | OVCAR-5 > 100 µM | OVCAR-8 > 100 µM | SF-268 32 µM | SF-539 35 µM | SK-MEL-2 > 100 µM | SK-MEL-5 > 100 µM | SN12C > 100 µM | U-251 > 100 µM

Nc1n[nH]c(CCCCCCCc2nnc(N)[nH]2)n1
inactive: CCRF-CEM > 100 µM | HCT-116 > 100 µM | K562 > 100 µM | KM12 > 100 µM | M14 > 100 µM | MOLT-4 > 100 µM | OVCAR-3 > 100 µM | OVCAR-4 > 100 µM | OVCAR-5 > 100 µM | RXF 393 > 100 µM | SF-268 > 100 µM | SF-539 > 100 µM | SK-MEL-2 > 100 µM | SN12C > 100 µM | U-251 > 100 µM | UACC-62 > 100 µM

N=c1c2c(=S)n(-c3ccccc3)c(=S)n(-c3ccccc3)c2nc(SCCCN2CCN(c3cccc(Cl)c3)CC2)n1-c1ccccc1
inactive: CCRF-CEM > 100 µM | COLO 205 > 100 µM | K562 > 100 µM | KM12 > 100 µM | MOLT-4 > 100 µM | OVCAR-3 > 100 µM | OVCAR-4 > 100 µM | OVCAR-5 26.4 µM | OVCAR-8 > 100 µM | RXF 393 > 100 µM | SF-539 > 100 µM | SK-MEL-2 62.8 µM | SK-MEL-5 92.7 µM | U-251 > 100 µM | UACC-62 49.2 µM

COc1ccc(/C(Cl)=C(\C=O)c2ccc(OC)cc2)cc1
inactive: A549 46.9 µM | CCRF-CEM 22.2 µM | HCT-116 61.9 µM | K562 63 µM | M14 > 100 µM | MOLT-4 7 µM | OVCAR-3 64.9 µM | OVCAR-4 48.1 µM | OVCAR-5 > 100 µM | OVCAR-8 59.4 µM | RXF 393 > 100 µM | SF-268 > 100 µM | SF-539 > 100 µM | SK-MEL-2 > 100 µM | SK-MEL-5 > 100 µM | SN12C > 100 µM | U-251 70.8 µM | UACC-62 > 100 µM

CC(=O)OC/C=C\Cn1ncc(=O)[nH]c1=O
inactive: A549 22.9 µM | CCRF-CEM 17.3 µM | COLO 205 16 µM | K562 23 µM | KM12 17 µM | M14 19 µM | MOLT-4 19.2 µM | OVCAR-3 28.2 µM | OVCAR-5 17.9 µM | OVCAR-8 23.7 µM | RXF 393 17.8 µM | SF-268 18 µM | SF-539 18.2 µM | SK-MEL-2 18.1 µM | SK-MEL-5 12.6 µM | SN12C 22.9 µM | U-251 15 µM
